IC50, inhibition and Activity data for one compound are collected here from ChEMBL document CHEMBL1157613, “Salicylic acid based small molecule inhibitor for the oncogenic Src homology-2 domain containing protein tyrosine phosphatase-2 (SHP2)” (J Med Chem, 2010).

The source made the active and inactive calls. No cut-off for these calls is given here. Some results are limits rather than exact numbers.

Experiment [1] addresses Receptor-type tyrosine-protein phosphatase alpha (Homo sapiens, UniProt P18433). The experiment can be described thus: Inhibition of PTPalpha expressed in Escherichia coli assessed as inhibition of p-nitrophenyl phosphate hydrolysis at pH 7 by spectrophotometry.
Experiment [2] concerns the target Tyrosine-protein phosphatase non-receptor type 13 (Homo sapiens, UniProt Q12923). The experiment can be described thus: Inhibition of FAP1 expressed in Escherichia coli assessed as inhibition of p-nitrophenyl phosphate hydrolysis at pH 7 by spectrophotometry.
Experiment [3] has as its target T1, Tyrosine-protein phosphatase non-receptor type 22 (Homo sapiens, UniProt Q9Y2R2).
T1 sequence (Q9Y2R2 whole entry): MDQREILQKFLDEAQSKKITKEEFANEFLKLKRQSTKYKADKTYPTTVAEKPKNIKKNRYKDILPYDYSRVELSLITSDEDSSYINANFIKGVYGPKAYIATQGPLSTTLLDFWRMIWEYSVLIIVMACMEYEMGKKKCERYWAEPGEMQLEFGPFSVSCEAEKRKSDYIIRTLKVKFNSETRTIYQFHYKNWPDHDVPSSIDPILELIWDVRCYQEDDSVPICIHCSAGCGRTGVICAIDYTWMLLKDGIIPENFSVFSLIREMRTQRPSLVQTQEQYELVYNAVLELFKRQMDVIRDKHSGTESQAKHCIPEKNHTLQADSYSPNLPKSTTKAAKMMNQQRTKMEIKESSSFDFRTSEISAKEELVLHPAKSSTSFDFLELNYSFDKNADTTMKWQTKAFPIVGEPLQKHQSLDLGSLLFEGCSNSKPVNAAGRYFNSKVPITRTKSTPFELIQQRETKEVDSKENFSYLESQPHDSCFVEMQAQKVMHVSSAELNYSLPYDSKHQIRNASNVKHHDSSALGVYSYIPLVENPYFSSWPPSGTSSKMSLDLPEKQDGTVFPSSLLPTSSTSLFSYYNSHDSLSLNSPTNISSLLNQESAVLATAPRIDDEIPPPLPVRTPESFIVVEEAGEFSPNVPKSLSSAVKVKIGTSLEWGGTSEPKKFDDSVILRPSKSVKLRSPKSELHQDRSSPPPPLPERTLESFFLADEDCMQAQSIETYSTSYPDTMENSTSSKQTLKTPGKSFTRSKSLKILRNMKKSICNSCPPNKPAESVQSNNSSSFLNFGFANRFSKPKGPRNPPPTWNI
In words: Inhibition of Lyp expressed in Escherichia coli assessed as inhibition of p-nitrophenyl phosphate hydrolysis at pH 7 by spectrophotometry.

The target of experiment [4] is Tyrosine-protein phosphatase non-receptor type 6 (Homo sapiens, UniProt P29350). The experiment can be described thus: Inhibition of SHP1 expressed in Escherichia coli assessed as inhibition of p-nitrophenyl phosphate hydrolysis at pH 7 by spectrophotometry.
Experiment [5] deals with T2, Tyrosine-protein phosphatase non-receptor type 1 (Homo sapiens, UniProt P18031).
T2 sequence (P18031 whole entry): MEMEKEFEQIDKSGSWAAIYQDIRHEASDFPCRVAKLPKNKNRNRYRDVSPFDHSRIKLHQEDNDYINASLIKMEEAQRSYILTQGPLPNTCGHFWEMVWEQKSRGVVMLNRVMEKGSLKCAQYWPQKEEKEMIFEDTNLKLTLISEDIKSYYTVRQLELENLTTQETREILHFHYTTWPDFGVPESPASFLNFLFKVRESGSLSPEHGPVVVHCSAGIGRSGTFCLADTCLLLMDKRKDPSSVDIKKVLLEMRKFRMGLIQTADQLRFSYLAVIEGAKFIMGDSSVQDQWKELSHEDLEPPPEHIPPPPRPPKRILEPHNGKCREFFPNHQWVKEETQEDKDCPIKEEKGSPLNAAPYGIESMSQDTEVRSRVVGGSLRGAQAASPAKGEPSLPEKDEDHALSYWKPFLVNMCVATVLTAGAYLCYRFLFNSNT
The experiment can be described thus: Inhibition of PTP1B expressed in Escherichia coli assessed as inhibition of p-nitrophenyl phosphate hydrolysis at pH 7 by spectrophotometry.

For experiment [6], the target named is T3, Tyrosine-protein phosphatase non-receptor type 7 (Homo sapiens, UniProt P35236).
T3 sequence (P35236 whole entry): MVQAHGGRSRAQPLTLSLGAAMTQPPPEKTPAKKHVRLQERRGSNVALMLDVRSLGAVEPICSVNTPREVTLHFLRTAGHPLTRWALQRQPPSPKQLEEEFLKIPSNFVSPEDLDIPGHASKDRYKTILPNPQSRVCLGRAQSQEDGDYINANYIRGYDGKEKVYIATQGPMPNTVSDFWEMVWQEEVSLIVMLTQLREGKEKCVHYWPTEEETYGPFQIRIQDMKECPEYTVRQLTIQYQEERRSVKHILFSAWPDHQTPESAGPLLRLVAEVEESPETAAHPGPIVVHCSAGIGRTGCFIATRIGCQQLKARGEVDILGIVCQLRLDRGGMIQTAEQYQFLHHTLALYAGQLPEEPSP
The experiment can be described thus: Inhibition of HePTP expressed in Escherichia coli assessed as inhibition of p-nitrophenyl phosphate hydrolysis at pH 7 by spectrophotometry.

For experiment [7], the target named is Receptor-type tyrosine-protein phosphatase F (Homo sapiens, UniProt P10586). In words: Inhibition of LAR expressed in Escherichia coli assessed as inhibition of p-nitrophenyl phosphate hydrolysis at pH 7 by spectrophotometry.
Experiment [8] addresses T4, Tyrosine-protein phosphatase non-receptor type 11 (Mus musculus) (UniProt P35235).
T4 sequence (whole entry): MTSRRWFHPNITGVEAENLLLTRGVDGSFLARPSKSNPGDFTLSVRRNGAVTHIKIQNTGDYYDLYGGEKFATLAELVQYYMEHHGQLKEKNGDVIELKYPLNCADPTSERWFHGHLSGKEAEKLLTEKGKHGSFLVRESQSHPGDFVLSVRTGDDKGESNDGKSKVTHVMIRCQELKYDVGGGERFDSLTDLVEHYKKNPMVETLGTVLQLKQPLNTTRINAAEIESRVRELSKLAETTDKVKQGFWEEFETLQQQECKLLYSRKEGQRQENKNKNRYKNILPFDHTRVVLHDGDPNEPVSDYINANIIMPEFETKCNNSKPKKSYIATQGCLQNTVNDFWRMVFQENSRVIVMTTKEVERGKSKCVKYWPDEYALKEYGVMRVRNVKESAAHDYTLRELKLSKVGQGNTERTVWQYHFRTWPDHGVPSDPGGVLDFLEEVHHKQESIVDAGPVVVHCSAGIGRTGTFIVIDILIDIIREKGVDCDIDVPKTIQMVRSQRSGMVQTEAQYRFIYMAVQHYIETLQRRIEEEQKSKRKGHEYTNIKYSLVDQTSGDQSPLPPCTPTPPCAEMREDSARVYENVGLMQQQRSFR
In words: Inhibition of SHP2-dependent ERK1/2 activation in EGF-stimulated mouse NIH/3T3 cells assessed as phosphorylated ERK1/2 level at 10 uM treated for 3 hrs before EGF challenge measured after 5 to 15 mins of EGF stimulation by immunoblot analysis. The experiment is classed as cell-based. Particulars: NIH3T3. (In general: Immunoblotting shows a protein as a band on a membrane.)

A further experiment is filed under the species Mus musculus. The experiment can be described thus: Antiproliferative activity against GM-CSF-stimulated C57/BL6 mouse low density BM-MNC assessed as inhibition of hyperproliferation at 10 uM after 16 hrs by [3H]thymidine incorporation assay. Particulars: C57Bl/6.

Tyrosine-protein phosphatase non-receptor type 6, sequence (P29350 whole entry): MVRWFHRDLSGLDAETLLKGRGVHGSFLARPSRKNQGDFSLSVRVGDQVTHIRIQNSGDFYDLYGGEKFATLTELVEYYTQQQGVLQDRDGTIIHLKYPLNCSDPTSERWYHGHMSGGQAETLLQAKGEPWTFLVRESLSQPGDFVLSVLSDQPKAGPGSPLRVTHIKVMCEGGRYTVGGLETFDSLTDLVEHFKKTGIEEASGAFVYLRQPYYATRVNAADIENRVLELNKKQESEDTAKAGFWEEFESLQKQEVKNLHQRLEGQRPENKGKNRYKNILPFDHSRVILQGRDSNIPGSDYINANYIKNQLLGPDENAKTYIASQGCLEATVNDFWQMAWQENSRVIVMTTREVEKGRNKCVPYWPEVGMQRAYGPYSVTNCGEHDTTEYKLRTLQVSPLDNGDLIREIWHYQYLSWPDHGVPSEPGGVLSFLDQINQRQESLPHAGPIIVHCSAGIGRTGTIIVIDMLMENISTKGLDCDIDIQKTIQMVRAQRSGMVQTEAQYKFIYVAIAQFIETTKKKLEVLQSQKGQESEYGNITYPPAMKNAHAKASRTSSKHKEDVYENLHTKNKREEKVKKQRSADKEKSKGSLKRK
Tyrosine-protein phosphatase non-receptor type 13, sequence (Q12923 whole entry): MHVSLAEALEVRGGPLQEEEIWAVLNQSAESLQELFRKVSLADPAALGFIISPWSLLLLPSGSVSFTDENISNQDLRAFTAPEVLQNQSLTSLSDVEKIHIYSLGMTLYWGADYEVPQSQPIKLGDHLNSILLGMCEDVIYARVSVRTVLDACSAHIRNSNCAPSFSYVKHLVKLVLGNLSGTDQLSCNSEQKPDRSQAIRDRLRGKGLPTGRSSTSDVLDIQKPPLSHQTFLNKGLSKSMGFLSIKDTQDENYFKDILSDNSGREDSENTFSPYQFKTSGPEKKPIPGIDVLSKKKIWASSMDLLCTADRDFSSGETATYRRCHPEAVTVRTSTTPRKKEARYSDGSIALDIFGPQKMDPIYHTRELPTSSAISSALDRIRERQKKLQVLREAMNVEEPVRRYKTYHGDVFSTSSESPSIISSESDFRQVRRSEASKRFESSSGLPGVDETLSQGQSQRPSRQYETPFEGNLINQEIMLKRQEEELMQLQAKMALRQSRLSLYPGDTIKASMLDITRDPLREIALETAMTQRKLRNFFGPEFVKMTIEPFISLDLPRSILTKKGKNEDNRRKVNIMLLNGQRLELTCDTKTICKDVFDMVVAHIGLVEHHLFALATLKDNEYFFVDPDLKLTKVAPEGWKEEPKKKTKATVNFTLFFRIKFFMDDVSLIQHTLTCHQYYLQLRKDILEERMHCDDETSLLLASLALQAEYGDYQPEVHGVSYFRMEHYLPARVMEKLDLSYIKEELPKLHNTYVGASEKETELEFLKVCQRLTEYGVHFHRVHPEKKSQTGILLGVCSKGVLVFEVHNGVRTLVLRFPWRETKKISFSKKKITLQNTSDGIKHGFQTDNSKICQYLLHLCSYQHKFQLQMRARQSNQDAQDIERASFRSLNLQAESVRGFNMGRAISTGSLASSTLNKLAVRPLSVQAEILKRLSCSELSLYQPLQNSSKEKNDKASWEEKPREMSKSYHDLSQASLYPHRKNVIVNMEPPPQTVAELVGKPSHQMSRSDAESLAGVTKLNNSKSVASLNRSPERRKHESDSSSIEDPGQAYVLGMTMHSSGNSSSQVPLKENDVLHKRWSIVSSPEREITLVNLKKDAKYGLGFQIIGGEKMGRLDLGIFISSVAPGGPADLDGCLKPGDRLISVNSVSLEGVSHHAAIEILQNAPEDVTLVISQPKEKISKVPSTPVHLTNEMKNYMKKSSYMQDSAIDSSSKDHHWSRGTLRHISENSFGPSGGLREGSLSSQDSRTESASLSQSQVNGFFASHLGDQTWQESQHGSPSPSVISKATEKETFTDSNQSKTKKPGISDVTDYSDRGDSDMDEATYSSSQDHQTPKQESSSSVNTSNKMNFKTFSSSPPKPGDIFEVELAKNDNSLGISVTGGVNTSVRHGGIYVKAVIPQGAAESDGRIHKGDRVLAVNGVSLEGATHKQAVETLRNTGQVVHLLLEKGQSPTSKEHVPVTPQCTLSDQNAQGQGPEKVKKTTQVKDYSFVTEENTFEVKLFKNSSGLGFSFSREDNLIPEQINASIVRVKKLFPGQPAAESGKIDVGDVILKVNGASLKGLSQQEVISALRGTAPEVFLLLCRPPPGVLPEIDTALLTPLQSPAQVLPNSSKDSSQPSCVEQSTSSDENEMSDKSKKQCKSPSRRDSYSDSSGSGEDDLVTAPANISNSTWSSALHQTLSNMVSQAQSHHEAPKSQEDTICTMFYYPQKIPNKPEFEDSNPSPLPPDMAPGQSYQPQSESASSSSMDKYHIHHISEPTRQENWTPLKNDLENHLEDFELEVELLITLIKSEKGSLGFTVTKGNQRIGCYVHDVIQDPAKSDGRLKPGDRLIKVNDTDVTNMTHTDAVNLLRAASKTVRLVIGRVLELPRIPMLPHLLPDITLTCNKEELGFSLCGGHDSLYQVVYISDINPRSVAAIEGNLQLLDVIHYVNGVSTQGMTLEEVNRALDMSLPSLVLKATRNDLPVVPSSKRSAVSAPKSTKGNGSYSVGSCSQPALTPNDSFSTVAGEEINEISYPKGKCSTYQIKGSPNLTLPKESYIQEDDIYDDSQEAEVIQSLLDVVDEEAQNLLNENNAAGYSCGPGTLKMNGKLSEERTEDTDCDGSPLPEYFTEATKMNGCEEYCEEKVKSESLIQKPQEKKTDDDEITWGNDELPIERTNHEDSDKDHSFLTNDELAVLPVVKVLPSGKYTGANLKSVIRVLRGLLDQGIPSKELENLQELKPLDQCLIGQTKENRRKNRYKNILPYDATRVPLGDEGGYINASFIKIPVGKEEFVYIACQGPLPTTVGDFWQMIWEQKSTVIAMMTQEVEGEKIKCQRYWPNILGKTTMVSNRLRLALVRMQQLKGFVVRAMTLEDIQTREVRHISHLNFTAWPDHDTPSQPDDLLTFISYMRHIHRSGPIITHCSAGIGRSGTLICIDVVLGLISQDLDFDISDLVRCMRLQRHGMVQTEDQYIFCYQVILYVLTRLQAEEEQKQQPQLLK
Receptor-type tyrosine-protein phosphatase F, sequence (P10586 whole entry): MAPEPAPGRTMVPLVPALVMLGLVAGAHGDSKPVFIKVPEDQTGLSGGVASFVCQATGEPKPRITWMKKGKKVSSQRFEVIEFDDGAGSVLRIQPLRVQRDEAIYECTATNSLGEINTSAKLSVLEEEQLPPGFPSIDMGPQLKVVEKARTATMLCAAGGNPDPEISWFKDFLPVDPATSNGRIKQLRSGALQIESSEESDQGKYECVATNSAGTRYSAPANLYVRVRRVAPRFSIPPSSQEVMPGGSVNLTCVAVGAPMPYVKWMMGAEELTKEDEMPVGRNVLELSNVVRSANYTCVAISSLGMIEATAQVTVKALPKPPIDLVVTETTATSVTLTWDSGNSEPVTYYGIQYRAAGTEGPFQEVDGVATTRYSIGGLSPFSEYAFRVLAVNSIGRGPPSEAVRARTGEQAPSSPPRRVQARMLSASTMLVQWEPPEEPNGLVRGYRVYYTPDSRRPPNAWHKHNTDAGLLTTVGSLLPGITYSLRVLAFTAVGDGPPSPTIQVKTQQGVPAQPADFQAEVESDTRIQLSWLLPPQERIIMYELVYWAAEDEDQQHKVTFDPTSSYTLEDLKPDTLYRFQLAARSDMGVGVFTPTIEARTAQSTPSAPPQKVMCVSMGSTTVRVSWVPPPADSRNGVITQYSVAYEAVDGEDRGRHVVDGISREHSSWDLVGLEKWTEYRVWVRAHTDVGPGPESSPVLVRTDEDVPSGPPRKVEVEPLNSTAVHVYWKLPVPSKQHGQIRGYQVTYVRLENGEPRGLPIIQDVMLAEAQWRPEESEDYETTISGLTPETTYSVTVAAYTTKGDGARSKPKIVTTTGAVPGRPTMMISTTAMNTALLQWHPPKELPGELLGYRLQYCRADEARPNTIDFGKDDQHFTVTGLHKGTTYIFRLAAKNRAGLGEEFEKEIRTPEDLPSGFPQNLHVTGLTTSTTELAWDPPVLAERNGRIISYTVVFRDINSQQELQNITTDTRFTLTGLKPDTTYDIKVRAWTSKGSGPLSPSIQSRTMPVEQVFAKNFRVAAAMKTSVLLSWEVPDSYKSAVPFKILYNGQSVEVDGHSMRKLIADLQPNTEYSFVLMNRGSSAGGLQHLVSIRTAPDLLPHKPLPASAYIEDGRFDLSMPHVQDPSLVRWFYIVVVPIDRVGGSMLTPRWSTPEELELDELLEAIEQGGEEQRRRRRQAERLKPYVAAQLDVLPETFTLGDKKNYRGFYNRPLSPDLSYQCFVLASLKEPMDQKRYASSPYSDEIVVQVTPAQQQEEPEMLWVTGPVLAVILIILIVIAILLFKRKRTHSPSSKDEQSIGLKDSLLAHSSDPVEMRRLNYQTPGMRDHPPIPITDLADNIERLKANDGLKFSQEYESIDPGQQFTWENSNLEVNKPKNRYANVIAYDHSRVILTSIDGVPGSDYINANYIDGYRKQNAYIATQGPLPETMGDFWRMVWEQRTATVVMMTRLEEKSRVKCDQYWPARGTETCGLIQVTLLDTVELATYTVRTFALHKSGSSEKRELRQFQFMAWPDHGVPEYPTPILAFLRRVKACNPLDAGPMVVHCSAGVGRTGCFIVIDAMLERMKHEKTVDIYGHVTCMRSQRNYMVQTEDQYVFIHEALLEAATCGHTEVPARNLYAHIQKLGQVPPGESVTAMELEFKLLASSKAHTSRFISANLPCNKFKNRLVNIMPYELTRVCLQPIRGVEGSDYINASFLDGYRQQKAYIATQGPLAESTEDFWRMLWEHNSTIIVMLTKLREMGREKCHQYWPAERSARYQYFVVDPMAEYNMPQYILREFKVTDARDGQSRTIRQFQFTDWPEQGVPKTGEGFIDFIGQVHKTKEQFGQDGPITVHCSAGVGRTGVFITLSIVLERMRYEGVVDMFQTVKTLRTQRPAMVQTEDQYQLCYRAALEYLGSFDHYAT

By IC50 is commonly meant the midpoint of a concentration-inhibition curve. For `Cn1c(-c2ccccc2)c(-c2cn(CCC(=O)Nc3ccc(-c4ccccc4)cc3)nn2)c2cc(C(=O)O)c(O)cc21`, the 50% inhibitory concentration (IC50) in experiment [1] is > 50 µM; in experiment [2] it was 20.3 µM; in experiment [3] it was 25 µM; in experiment [4], 15.7 µM; in experiment [5] it was 14.3 µM; in experiment [6], > 50 µM. For the same compound, in [7], the IC50 was > 50 µM. Also, the inhibition entry in [8] is “inactive”. In addition, in the experiment filed under Mus musculus, the outcome was Active.
